Earlier results on four compounds are cited in patent US9624424B2, “Large stokes shift dyes” (LIFE TECHNOLOGIES CORPORATION, priority 2009, dated 2017).

Turning to `CCN1C(=CC=CC=CC=CC2=[N+](CCCCCC(=O)O)c3ccc(S(=O)(=O)O)cc3C2(C)C)C(C)(C)c2cc(S(=O)(=O)[O-])ccc21` [Cy7], the “extinction coefficient around 605 nm (commercial dyes emitting at 750-800 nm)” value (“extinction coefficient around 605 nm” below) was ~15,000 M^−1cm^−1.
Turning to AlexaFluor 750 [AF750], the “extinction coefficient around 605 nm” value is ~15,000 M^−1cm^−1.
As to `CCN1c2cc3c(cc2C(C)=CC1(C)C)C(=CC=CC=CC1=[N+](CCCCCC(=O)O)c2ccc(S(=O)(=O)[O-])cc2C1(C)C)C=C(C(C)(C)C)O3` [Dy750], the “extinction coefficient around 605 nm” value is ~15,000 M^−1cm^−1.
For `CC(C)(C)c1cc(/C=C/C=C/C=C2/N(CCCS(=O)(=O)[O-])c3ccc(S(=O)(=O)[O-])cc3C2(C)CCCC(=O)O)c2ccc(=[N+](CCCS(=O)(=O)[O-])CCCS(=O)(=O)[O-])cc-2o1.[Na+].[Na+].[Na+]` (stereo not shown) [Dy734], the “extinction coefficient around 605 nm” value was ~15,000 M^−1cm^−1.
